Data set [1] has as its system dengue virus type 2. The data set is described as follows: Antiviral activity against DENV2 New Guinea C strain infected in human Huh7 cells assessed as reduction in viral infection measured after 48 hrs post infection by renilla luciferase assay relative to control. Type of data set: functional, organism-based. As to conditions: Huh-7, 48 h.
A short description of data set [2]: Cytotoxicity against DENV infected human Huh-7 cells assessed as reduction in cell viability by alamar blue assay. Type of data set: cell-based. Particulars: DENV-infected Huh-7 cells. In general terms: The colour change of resazurin is a common sign of viable cells or microbes.
A short description of data set [3]: Cytotoxicity against Venezuelan equine encephalitis virus TC-83 strain infected human U-87 MG cells assessed as reduction in cell viability by alamar blue assay. The data set is classed as cell-based, U-87MG ATCC.
Data set [4] concerns Venezuelan equine encephalitis virus. The data set is described as follows: Antiviral activity against Venezuelan equine encephalitis virus TC-83 strain infected in human U-87 MG cells assessed as reduction in viral infection measured after 18 hrs post infection by Nano luciferase assay relative to control. The data set is classed as functional, organism-based. Particulars: TC-83, U-87 MG.

This is an account of results in ChEMBL document CHEMBL5036348, “Identification and evaluation of 4-anilinoquin(az)olines as potent inhibitors of both dengue virus (DENV) and Venezuelan equine encephalitis virus (VEEV)” (Bioorg Med Chem Lett, 2021).

For orientation: pEC50 means −log10 of the EC50, conventionally taken in molar units. In general, CC50 refers to the concentration that lowers cell viability or growth by half.

pEC50: −log10 of the molar value.

`COc1cc2nccc(Nc3cccc(Br)c3)c2cc1OC`: the pEC50 was 5.01 in data set [1] and 5.32 in data set [4]. The CC50 in data set [2] and in data set [3] was more than 10 µM in each case.

Turning to `FC(F)(F)c1ccc2nccc(Nc3cccc(I)c3)c2c1`, the pEC50 is 5.21 in data set [1] and 5.85 in data set [4]. The CC50 in data set [2] and in data set [3] was more than 10 µM throughout.

`COc1cc(Nc2ncnc3ccc(C(F)(F)F)cc23)cc(OC)c1OC`: the pEC50 in data set [1] and in data set [4] was less than 5.00 in each case. The CC50 in data set [2] and in data set [3] was more than 10 µM in each case.

With `C#Cc1cccc(Nc2ccnc3ccc(C(F)(F)F)cc23)c1`, the pEC50 was 5.42 in data set [1] and 5.60 in data set [4]. Also, the half-maximal cytotoxic concentration (CC50) in data set [2] and in data set [3] was more than 10 µM each time.

Turning to `COc1ccc(OC)c(Nc2ccnc3ccc(C(F)(F)F)cc23)c1`, the pEC50 was 6.60 in data set [1] and 5.77 in data set [4]. Moreover, the CC50 in data set [2] and in data set [3] was more than 10 µM throughout.

For `C#Cc1cccc(Nc2ccnc3cc(OC)ccc23)c1`, the pEC50 was 5.77 in data set [1] and less than 5.00 in data set [4]. The CC50 in data set [2] and in data set [3] was more than 10 µM each time.

Turning to `FC(F)(F)c1ccc2nccc(Nc3ccc(Cl)cc3)c2c1`, the pEC50 in data set [1] was 5.14; in data set [4] it was 5.72. For the same molecule, the cytotoxic concentration (CC50) in data set [2] and in data set [3] was more than 10 µM throughout.

As to `CC(=O)c1cccc(Nc2ccnc3ccc(C(F)(F)F)cc23)c1`, the values for the pEC50 in data set [1] and in data set [4] were 5.17 and less than 5.00, respectively. The CC50 in data set [2] and in data set [3] was more than 10 µM in each case.

As for `FC(F)(F)c1ccc2nccc(Nc3ccc4c(c3)OCO4)c2c1`, the values for the pEC50 in data set [1] and in data set [4] were 5.39 and 5.82, respectively. Moreover, the cytotoxic concentration (CC50) in data set [2] and in data set [3] was more than 10 µM throughout.

As for `FC(F)(F)c1ccc2nccc(Nc3ccc(Cl)c(Cl)c3)c2c1`, the figures for the pEC50 in data set [1] and in data set [4] were 5.48 and 6.30, respectively. The CC50 in data set [2] and in data set [3] was more than 10 µM throughout.

With `COc1cccc(Nc2ccnc3ccc(C(F)(F)F)cc23)c1`, the figures for the pEC50 in data set [1] and in data set [4] were 6.09 and 5.26, respectively. Besides, the CC50 in data set [2] and in data set [3] was more than 10 µM each time.

Consider `Fc1cc(Cl)cc(Nc2ccnc3ccc(C(F)(F)F)cc23)c1`, for which the pEC50 in data set [1] is 5.03; in data set [4], 5.24. Further, the CC50 in data set [2] and in data set [3] was more than 10 µM each time.

With `C#Cc1cccc(Nc2ncnc3cc(OC)c(OC)cc23)c1F`, the pEC50 in data set [1] was less than 5.00; in data set [4], 5.00. Also, the CC50 in data set [2] and in data set [3] was more than 10 µM throughout.

On to `FC(F)(F)c1ccc2nccc(Nc3ccccc3Br)c2c1`, for which the pEC50 in data set [1] and in data set [4] was less than 5.00 each time. The CC50 in data set [2] and in data set [3] was more than 10 µM throughout.

In the case of `C#Cc1cccc(Nc2c(C#N)cnc3cc(OC)ccc23)c1`, the pEC50 is 5.11 in data set [1] and less than 5.00 in data set [4]. Also, the CC50 in data set [2] and in data set [3] was more than 10 µM each time.

Regarding `C#Cc1cccc(Nc2c(C#N)cnc3cc(OC)c(OC)cc23)c1`, the pEC50 in data set [1] was 5.52; in data set [4], less than 5.00. The CC50 in data set [2] and in data set [3] was more than 10 µM throughout.

Consider `FC(F)(F)c1cccc(Nc2ccnc3ccc(C(F)(F)F)cc23)c1`, for which the results for the pEC50 in data set [1] and in data set [4] were 5.24 and 5.32, respectively. In addition, the CC50 in data set [2] and in data set [3] was more than 10 µM each time.
